Laboratory results as given in patent publication US20230085307A1, “PYRIDAZINONE COMPOUND AND HERBICIDE” (NISSAN CHEMICAL CORPORATION, priority 2019, published 2023).

Columns and labels:
lambsquarters [1] = assay: Test Example 5: herbicidal effect by foliage application, plastic box (Table 20, symbol O); type: in vivo, lambsquarters (Chenopodium album); details: foliage application, 320 g/ha, 3 weeks after application
Outline: (§1)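 Foliar spray test: emulsion formulation diluted in water to a set application rate, sprayed onto 14-day-old plants raised in diluvial soil at 25° C to 30° C under glass. Both herbicidal effect and crop effect rated visually three weeks later.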

green foxtail [2] = assay: Test Example 4: herbicidal effect by soil treatment (Table 19, symbol G); type: in vivo, green foxtail (Setaria viridis); details: 320 g/ha
Outline: (§2)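 Herbicidal effect was rated 3 weeks after treatment, using the scoring criteria of an earlier test. The compound, formulated as an emulsion and diluted in water to a set herbicide amount, had been sprayed uniformly on soil over freshly sown seeds. Growth took place in a greenhouse at 25° C. to 30° C.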

blackgrass [3] = assay: Test Example 4: herbicidal effect by soil treatment (Table 19, symbol J); type: in vivo, blackgrass (Alopecurus myosuroides); details: 320 g/ha
Outline: as §2

persian speedwell [4] = assay: Test Example 5: herbicidal effect by foliage application, plastic box (Table 20, symbol R); type: in vivo, Persian speedwell (Veronica persica); details: foliage application, 320 g/ha, 3 weeks after application
Outline: as §1

velvetleaf [5] = assay: Test Example 4: herbicidal effect by soil treatment (Table 19, symbol M); type: in vivo, velvetleaf (Abutilon theophrasti); details: 320 g/ha
Outline: as §2

windgrass [6] = assay: Test Example 5: herbicidal effect by foliage application, plastic box (Table 20, symbol L); type: in vivo, windgrass (Apera spica-venti); details: foliage application, 320 g/ha, 3 weeks after application
Outline: as §1

southern crabgrass [7] = assay: Test Example 5: herbicidal effect by foliage application, plastic box (Table 20, symbol F); type: in vivo, southern crabgrass (Digitaria ciliaris); details: foliage application, 320 g/ha, 3 weeks after application
Outline: as §1

Chinese sprangletop = assay: Test Example 3: herbicidal effect by foliage application, Wagner pot (Table 18, symbol D); type: in vivo, chinese sprangletop (Leptochloa chinensis); details: 320 g/ha
Outline: (§3)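 Plants were sown in alluvial soil held under 0.1–0.5 cm standing water and grown 14 days in a greenhouse at 25–30 °C. An emulsifiable formulation, water-diluted to the set dose, was then sprayed onto the foliage, and effects were scored three weeks later using previously defined criteria.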

green foxtail [8] = assay: Test Example 5: herbicidal effect by foliage application, plastic box (Table 20, symbol G); type: in vivo, green foxtail (Setaria viridis); details: foliage application, 320 g/ha, 3 weeks after application
Outline: as §1

blackgrass [9] = assay: Test Example 5: herbicidal effect by foliage application, plastic box (Table 20, symbol J); type: in vivo, blackgrass (Alopecurus myosuroides); details: foliage application, 320 g/ha, 3 weeks after application
Outline: as §1

Italian ryegrass [10] = assay: Test Example 4: herbicidal effect by soil treatment (Table 19, symbol K); type: in vivo, Italian ryegrass (Lolium multiflorum); details: 320 g/ha
Outline: as §2

southern crabgrass [11] = assay: Test Example 4: herbicidal effect by soil treatment (Table 19, symbol F); type: in vivo, southern crabgrass (Digitaria ciliaris); details: 320 g/ha
Outline: as §2

lambsquarters [12] = assay: Test Example 4: herbicidal effect by soil treatment (Table 19, symbol O); type: in vivo, lambsquarters (Chenopodium album); details: 320 g/ha
Outline: as §2

Italian ryegrass [13] = assay: Test Example 5: herbicidal effect by foliage application, plastic box (Table 20, symbol K); type: in vivo, Italian ryegrass (Lolium multiflorum); details: foliage application, 320 g/ha, 3 weeks after application
Outline: as §1

wild oat [14] = assay: Test Example 4: herbicidal effect by soil treatment (Table 19, symbol I); type: in vivo, wild oat (Avena fatua); details: 320 g/ha
Outline: as §2

persian speedwell [15] = assay: Test Example 4: herbicidal effect by soil treatment (Table 19, symbol R); type: in vivo, Persian speedwell (Veronica persica); details: 320 g/ha
Outline: as §2

redroot pigweed = assay: Test Example 4: herbicidal effect by soil treatment (Table 19, symbol N); type: in vivo, redroot pigweed (Amaranthus retroflexus); details: 320 g/ha
Outline: as §2

chickweed = assay: Test Example 4: herbicidal effect by soil treatment (Table 19, symbol P); type: in vivo, common chickweed (Stellaria media); details: 320 g/ha
Outline: as §2

barnyard grass [16] = assay: Test Example 4: herbicidal effect by soil treatment (Table 19, symbol H); type: in vivo, barnyard grass (Echinochloa crus-galli); details: 320 g/ha
Outline: as §2

barnyard grass [17] = assay: Test Example 3: herbicidal effect by foliage application, Wagner pot (Table 18, symbol H); type: in vivo, barnyard grass (Echinochloa crus-galli); details: 320 g/ha
Outline: as §3

windgrass [18] = assay: Test Example 4: herbicidal effect by soil treatment (Table 19, symbol L); type: in vivo, windgrass (Apera spica-venti); details: 320 g/ha
Outline: as §2

barnyard grass [19] = assay: Test Example 5: herbicidal effect by foliage application, plastic box (Table 20, symbol H); type: in vivo, barnyard grass (Echinochloa crus-galli); details: foliage application, 320 g/ha, 3 weeks after application
Outline: as §1

rice flat sedge = assay: Test Example 3: herbicidal effect by foliage application, Wagner pot (Table 18, symbol E); type: in vivo, rice flat sedge (Cyperus iria); details: 320 g/ha
Outline: as §3

velvetleaf [20] = assay: Test Example 5: herbicidal effect by foliage application, plastic box (Table 20, symbol M); type: in vivo, velvetleaf (Abutilon theophrasti); details: foliage application, 320 g/ha, 3 weeks after application
Outline: as §1

wild oat [21] = assay: Test Example 5: herbicidal effect by foliage application, plastic box (Table 20, symbol I); type: in vivo, wild oat (Avena fatua); details: foliage application, 320 g/ha, 3 weeks after application
Outline: as §1

With `C=Cc1ccc(-c2sc3ccc(F)cc3c2-c2c(OC(=O)CCC)c(C)nn(C)c2=O)cc1` [2-019] as the compound, how does the “effect on lambsquarters (O)” value (lambsquarters [1]) read?
The value was 5 (Herbicidal rate of 90% or more (almost completely withered)).

What about the “herbicidal effect rating, G: green foxtail” value (green foxtail [2]) of the same compound?
The value was 2 (Herbicidal rate of 20% or more and less than 40%).

And the “herbicidal effect rating, J: blackgrass” value (blackgrass [3])?
Its value is 0 (Herbicidal rate of 5% or less (almost no effect)).

And the “effect on persian speedwell (R)” value (persian speedwell [4])?
The value was 5 (Herbicidal rate of 90% or more (almost completely withered)).

And the “herbicidal effect rating, M: velvetleaf” value (velvetleaf [5])?
Its value is 0 (Herbicidal rate of 5% or less (almost no effect)).

What about the “effect on windgrass (L)” value (windgrass [6]) of the same compound?
The value was 4 (Herbicidal rate of 70% or more and less than 90%).

What about the “effect on southern crabgrass (F)” value (southern crabgrass [7]) of the same compound?
The value was 4 (Herbicidal rate of 70% or more and less than 90%).

What about the “herbicidal effect on D (Chinese sprangletop), rating 0-5” value (Chinese sprangletop) of the same compound?
The value was 3 (Herbicidal rate of 40% or more and less than 70%).

What about the “effect on green foxtail (G)” value (green foxtail [8]) of the same compound?
Its value is 5 (Herbicidal rate of 90% or more (almost completely withered)).

What about the “effect on blackgrass (J)” value (blackgrass [9]) of the same compound?
Its value is 0 (Herbicidal rate of 5% or less (almost no effect)).

And the “herbicidal effect rating, K: Italian ryegrass” value (Italian ryegrass [10])?
Its value is 5 (Herbicidal rate of 90% or more (almost completely withered)).

What about the “herbicidal effect rating, F: southern crabgrass” value (southern crabgrass [11]) of the same compound?
The value was 0 (Herbicidal rate of 5% or less (almost no effect)).

And the “herbicidal effect rating, O: lambsquarters” value (lambsquarters [12])?
The value was 3 (Herbicidal rate of 40% or more and less than 70%).

What about the “effect on Italian ryegrass (K)” value (Italian ryegrass [13]) of the same compound?
Its value is 3 (Herbicidal rate of 40% or more and less than 70%).

What about the “herbicidal effect rating, I: wild oat” value (wild oat [14]) of the same compound?
The value was 0 (Herbicidal rate of 5% or less (almost no effect)).

And the “herbicidal effect rating, R: persian speedwell” value (persian speedwell [15])?
The value was 5 (Herbicidal rate of 90% or more (almost completely withered)).

What about the “herbicidal effect rating, N: redroot pigweed” value (redroot pigweed) of the same compound?
Its value is 5 (Herbicidal rate of 90% or more (almost completely withered)).

What about the “herbicidal effect rating, P: chickweed” value (chickweed) of the same compound?
Its value is 4 (Herbicidal rate of 70% or more and less than 90%).

What about the “herbicidal effect rating, H: barnyard grass” value (barnyard grass [16]) of the same compound?
Its value is 0 (Herbicidal rate of 5% or less (almost no effect)).

What about the “herbicidal effect on H (barnyard grass), rating 0-5” value (barnyard grass [17]) of the same compound?
The value was 5 (Herbicidal rate of 90% or more (almost completely withered)).

What about the “herbicidal effect rating, L: windgrass” value (windgrass [18]) of the same compound?
Its value is 1 (Herbicidal rate of 5% or more and less than 20%).

What about the “effect on barnyard grass (H)” value (barnyard grass [19]) of the same compound?
Its value is 5 (Herbicidal rate of 90% or more (almost completely withered)).

And the “herbicidal effect on E (rice flat sedge), rating 0-5” value (rice flat sedge)?
The value was 4 (Herbicidal rate of 70% or more and less than 90%).

What about the “effect on velvetleaf (M)” value (velvetleaf [20]) of the same compound?
The value was 5 (Herbicidal rate of 90% or more (almost completely withered)).

And the “effect on wild oat (I)” value (wild oat [21])?
Its value is 4 (Herbicidal rate of 70% or more and less than 90%).
